We go through 35 compounds from a melting point compilation (Tetko et al.; mined from patent text by program, amines drawn as free bases though some values may be those of a salt).

Where only a bound is given, the exact number is not on record here.

By melting point is commonly meant the temperature, or range, at which the solid turns liquid. The compound `CCCCCCCCCCCCCCCc1cc(OCC(COC(=O)NCCCCCn2cnnn2)Oc2cc(C)on2)no1` (racemic) registered a melting point of 82 to 84 °C. The same measure for `Cn1nc(-c2cc(C=O)c(Cl)cc2F)c(Cl)c1C(F)(F)F`: 70 to 72 °C; for `O=C1N(N(c2ccccc2)c2ccccc2)c2ccccc2C1(Cc1ccnc(F)c1)Cc1ccnc(F)c1`: 179 to 180 °C. For the compound `O=C(Nc1ccccc1C(c1ccc(O)cc1)c1ccc(O)cc1)c1cccs1`, the melting point lay within 240 to 243 °C.

Compound `CCOC(=O)C=Cc1cnc2ccccc2c1` gave a melting point of 86.5 to 88 °C. Compound `CCCCCCCCCCCCCCCCCCCCC(=S)NCCCN(CC)CC` came in with a melting point of 61 °C. As to `CCOc1nc2cccc(C(=O)OC(C)OC(=O)OC3CCCCC3)c2n1Cc1ccc(-c2ccccc2-c2nc(=O)o[nH]2)cc1` (stereo not given), the melting point was in the range of 108 to 109 °C. For the compound `CC(=O)C1CCC2C3CCC4CC(C)(O)CCC4(C)C3CCC12C` (stereo not given), the melting point stood at 103 °C. For the compound `COc1cc2c(cc1C(C)(C)c1ccccc1)OCO2`, the melting point was 75 to 76 °C. Compound `NS(=O)(=O)NC(=O)CCCCC1CCSS1` (stereo not given) displayed a melting point of 141 to 142 °C. As to `CCC(=O)NCC1CC1c1cccc2nnsc12` (stereo not given), the melting point is 67 to 69 °C. For `COC(=O)[C@H](CCSC)NC(=O)c1ccc(/C=C(/Cn2ccnc2)c2ccc(F)cc2)cc1` the value was 54 to 57 °C; for `Cc1oc(-c2ccccc2)nc1/C=C/c1ccc(Br)cc1`, 138 to 139 °C; for `CSc1ccc(-c2nn(Cc3ccc(F)cc3F)c(=O)cc2-c2ccc(Cl)cc2)cc1`, 157 to 158 °C.

With `COc1ccc(Cn2cnc3c(-c4ccco4)nc(SC)nc32)cc1`, the melting point was in the range of 147 to 148 °C. On to `N#Cc1c(-c2ccccc2)cc(Cl)nc1Cl`, for which the melting point was 167 to 169 °C.

In the case of `O=[N+]([O-])c1cc(F)cc2c1OCCC2`, the melting point is 48 to 50 °C. Take `O=C(O)c1cc2ccc(C3OC(CO)C(O)C(O)C3O)cc2oc1=O` (stereo not given): the melting point is 250 to 255 °C. Compound `N=C(N)c1nc2c(s1)CCc1c-2sc2nc3ccccc3n12` came in with a melting point greater than 300 °C. In turn, `Cc1ccnc(Cn2ccnc2)c1O` registered a melting point of 170 to 172 °C. `COC1C(=O)NC=C1Cl` (stereo not given) gave a melting point of 96 to 98 °C. The compound `Cc1ccc2c(c1)c1c(CC(=O)N(C)C)nn(-c3ccccc3)c(=O)c1n2C` registered a melting point of 209 to 210 °C. For `N#CC1=C(c2cccs2)Nc2n[nH]cc2C1c1ccccc1[N+](=O)[O-]` (stereo not given) the value was 165 °C; for `O=S(=O)(NCCc1ccc(OCc2nnn[nH]2)cc1)c1ccc(Cl)cc1`, 136 °C. `O=C(Nc1cnc2c(c1)nc1n2CCC1)c1cc2cc(F)ccc2n1Cc1cccc(F)c1` had a melting point of 227 to 229 °C.

The compound `CCc1cccc2c3c([nH]c12)C(CC)(CC(=O)OC)OCC3` (stereo not given) returned a melting point of 128 to 130 °C. With `O=C1N(Cc2ccccn2)c2cccc(-c3cnc4ccccc4c3)c2C12COc1cc3c(cc12)OCCO3` (stereo not given), the melting point was in the range of 228 to 230 °C. `CC(C)(C)c1cc(CN)n(NCC(F)(F)F)n1`: the melting point was in the range of 80 to 83 °C.

Take `O=C(N[C@H]1CC[C@H](CCN2CCC(c3cccc4c3CCO4)CC2)CC1)c1ccc2ncccc2c1`: the melting point stood at 238 °C. In turn, `O=c1cnc(-c2c(F)cccc2F)n[nH]1` returned a melting point of 219 to 226 °C.

Compound `O=C(O)C1=Cc2cc(Oc3ccc(Cl)cc3)ccc2OC1C(F)(F)F` (stereo not given) returned a melting point of 140 to 142 °C.

`CC(=O)SC1CN(C(=O)OCc2ccccc2)C1` gave a melting point of 94.5 to 95.5 °C. For `N#Cc1cn(-c2c(Cl)cc(C(F)(F)F)cc2Cl)cc1I` the value was 118 to 120 °C; for `Cc1nccn1S(=O)(=O)c1c[nH]cn1`, 158 to 159 °C; for `O=S(=O)(Nc1ccc(Oc2ccc3ncccc3c2)cc1)c1cccc(C(F)(F)F)c1`, 142 to 143 °C.
